Experimental data: PubChem BioAssay (NCI)
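In this assay, cells in 96-well plates receive the compound at five concentrations for 48 hours. Endpoints are linearly interpolated between the surrounding concentrations. TGI marks complete inhibition of growth.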

What was measured:
Assay in all cases: NCI anticancer screen, dose series, 48 h
[1] = system: 786-0 renal
[2] = system: A498 renal
[3] = system: A549 NSCLC
[4] = system: ACHN renal
[5] = system: BT-549 breast
[6] = system: CAKI-1 renal
[7] = system: CCRF-CEM leukemia
[8] = system: COLO 205 colon
[9] = system: DLD-1 colon
[10] = system: DMS 114 small cell lung
[11] = system: DMS 273 small cell lung
[12] = system: DU-145 prostate
[13] = system: EKVX NSCLC
[14] = system: HCC-2998 colon
[15] = system: HCT-116 colon
[16] = system: HCT-15 colon
[17] = system: HL-60(TB) leukemia
[18] = system: HOP-18 NSCLC
[19] = system: HOP-62 NSCLC
[20] = system: HOP-92 NSCLC
[21] = system: HS 578T breast
[22] = system: HT29 colon
[23] = system: IGROV1 ovarian
[24] = system: K-562 leukemia
[25] = system: KM12 colon
[26] = system: KM20L2 colon
[27] = system: LOX IMVI melanoma
[28] = system: LXFL 529 NSCLC
[29] = system: M14 melanoma
[30] = system: M19-MEL melanoma
[31] = system: MALME-3M melanoma
[32] = system: MDA-MB-231 breast
[33] = system: MDA-MB-435
[34] = system: MDA-N
[35] = system: MOLT-4 leukemia
[36] = system: NCI-H226 lung
[37] = system: NCI-H23 lung
[38] = system: NCI-H460 lung
[39] = system: NCI-H522 lung
[40] = system: OVCAR-3 ovarian
[41] = system: OVCAR-4 ovarian
[42] = system: OVCAR-5 ovarian
[43] = system: OVCAR-8 ovarian
[44] = system: PC-3 prostate
[45] = system: RPMI-8226 leukemia
[46] = system: RXF 393 renal
[47] = system: SF-268 CNS
[48] = system: SF-295 CNS
[49] = system: SF-539 CNS
[50] = system: SK-MEL-2 melanoma
[51] = system: SK-MEL-28 melanoma
[52] = system: SK-MEL-5 melanoma
[53] = system: SK-OV-3 ovarian
[54] = system: SN12C renal
[55] = system: SNB-19 CNS
[56] = system: SNB-75 CNS
[57] = system: SNB-78 CNS
[58] = system: SR leukemia
[59] = system: SW-620 colon
[60] = system: TK-10 renal
[61] = system: U251 CNS
[62] = system: UACC-257 melanoma
[63] = system: UACC-62 melanoma
[64] = system: UO-31 renal
[65] = system: XF 498 CNS
[66] = system: RXF-631 renal

SMILES: COc1cc(-c2[nH]ccc2Cl)oc1C1=C2N=C3C=C2C(C(C)C)C1CCCCCCCC3 (stereo unspecified)
- TGI [1]: 2.34 µM
- TGI [2]: 5.31 µM
- TGI [3]: 2.88 µM
- TGI [4]: 3.12 µM
- TGI [5]: 2.32 µM
- TGI [6]: 5.27 µM
- TGI [7]: 1.74 µM
- TGI [8]: 1.87 µM
- TGI [9]: 2.6 µM
- TGI [10]: 1.87 µM
- TGI [11]: 1.48 µM
- TGI [12]: 1.85 µM
- TGI [13]: 3.51 µM
- TGI [14]: 1.77 µM
- TGI [15]: 0.992 µM
- TGI [16]: 1.86 µM
- TGI [17]: 0.943 µM
- TGI [18]: 2.08 µM
- TGI [19]: 2.07 µM
- TGI [20]: 3.59 µM
- TGI [21]: 1.41 µM
- TGI [22]: 1.11 µM
- TGI [23]: 2.71 µM
- TGI [24]: 1.85 µM
- TGI [25]: 2.83 µM
- TGI [26]: 1.48 µM
- TGI [27]: 0.348 µM
- TGI [28]: 1.84 µM
- TGI [29]: 1.51 µM
- TGI [30]: 1.59 µM
- TGI [31]: 2.49 µM
- TGI [32]: 1.56 µM
- TGI [33]: 1.4 µM
- TGI [34]: 1.75 µM
- TGI [35]: 1.74 µM
- TGI [36]: 3.51 µM
- TGI [37]: 2.05 µM
- TGI [38]: 1.53 µM
- TGI [39]: 1.58 µM
- TGI [40]: 2.05 µM
- TGI [41]: 2.48 µM
- TGI [42]: 2.05 µM
- TGI [43]: 1.83 µM
- TGI [44]: 1.37 µM
- TGI [45]: 5.34 µM
- TGI [46]: 2.42 µM
- TGI [47]: 4.1 µM
- TGI [48]: 2.39 µM
- TGI [49]: 2.46 µM
- TGI [50]: 1.39 µM
- TGI [51]: 2.84 µM
- TGI [52]: 0.813 µM
- TGI [53]: 3.77 µM
- TGI [54]: 3 µM
- TGI [55]: 5.92 µM
- TGI [56]: 3.18 µM
- TGI [57]: 15.5 µM
- TGI [58]: 0.739 µM
- TGI [59]: 1.5 µM
- TGI [60]: 5.19 µM
- TGI [61]: 1.89 µM
- TGI [62]: 3.18 µM
- TGI [63]: 1.91 µM
- TGI [64]: 2.55 µM
- TGI [65]: 2.76 µM

SMILES: CC(c1ccc(Br)cc1)C(C(=O)O)C(=O)O (stereo unspecified)
- TGI [1]: > 100 µM
- TGI [3]: > 100 µM
- TGI [4]: > 100 µM
- TGI [6]: > 100 µM
- TGI [7]: > 100 µM
- TGI [8]: > 100 µM
- TGI [9]: > 100 µM
- TGI [10]: > 100 µM
- TGI [11]: > 100 µM
- TGI [13]: > 100 µM
- TGI [14]: > 100 µM
- TGI [15]: > 100 µM
- TGI [16]: > 100 µM
- TGI [17]: > 100 µM
- TGI [18]: > 100 µM
- TGI [19]: > 100 µM
- TGI [22]: > 100 µM
- TGI [23]: > 100 µM
- TGI [24]: > 100 µM
- TGI [25]: > 100 µM
- TGI [26]: > 100 µM
- TGI [27]: > 100 µM
- TGI [28]: > 100 µM
- TGI [29]: > 100 µM
- TGI [30]: > 100 µM
- TGI [31]: > 100 µM
- TGI [35]: > 100 µM
- TGI [36]: > 100 µM
- TGI [37]: > 100 µM
- TGI [38]: > 100 µM
- TGI [39]: > 100 µM
- TGI [40]: > 100 µM
- TGI [41]: > 100 µM
- TGI [42]: > 100 µM
- TGI [43]: > 100 µM
- TGI [45]: > 100 µM
- TGI [46]: > 100 µM
- TGI [47]: > 100 µM
- TGI [48]: > 100 µM
- TGI [50]: > 100 µM
- TGI [51]: > 100 µM
- TGI [52]: > 100 µM
- TGI [53]: > 100 µM
- TGI [54]: > 100 µM
- TGI [55]: > 100 µM
- TGI [56]: > 100 µM
- TGI [57]: > 100 µM
- TGI [58]: > 100 µM
- TGI [59]: > 100 µM
- TGI [60]: > 100 µM
- TGI [61]: > 100 µM
- TGI [62]: > 100 µM
- TGI [63]: > 100 µM
- TGI [64]: > 100 µM

SMILES: CN(C)CCn1c2ccccc2c2nc3cc4ccccc4cc3nc21
- TGI [1]: 16 µM
- TGI [2]: 8.11 µM
- TGI [3]: 16.9 µM
- TGI [4]: 11.1 µM
- TGI [6]: 20 µM
- TGI [7]: 14.7 µM
- TGI [8]: 12.3 µM
- TGI [9]: 16.5 µM
- TGI [10]: 20.7 µM
- TGI [11]: 14.6 µM
- TGI [13]: 31.8 µM
- TGI [14]: 17.7 µM
- TGI [15]: 16.9 µM
- TGI [16]: 18.7 µM
- TGI [17]: 11.1 µM
- TGI [19]: 20.1 µM
- TGI [22]: 15 µM
- TGI [23]: 10.7 µM
- TGI [24]: 10.9 µM
- TGI [25]: 16.8 µM
- TGI [26]: 15.6 µM
- TGI [27]: 15.6 µM
- TGI [28]: 17.9 µM
- TGI [29]: 16.4 µM
- TGI [30]: 21 µM
- TGI [31]: 25.2 µM
- TGI [35]: 4.1 µM
- TGI [36]: 34.6 µM
- TGI [37]: 24 µM
- TGI [38]: 2.48 µM
- TGI [39]: 21.7 µM
- TGI [40]: 28.2 µM
- TGI [41]: 23.7 µM
- TGI [43]: 23 µM
- TGI [45]: 13.2 µM
- TGI [46]: 24.4 µM
- TGI [47]: 6.26 µM
- TGI [48]: 17 µM
- TGI [50]: 24.8 µM
- TGI [51]: 21.9 µM
- TGI [52]: 26.5 µM
- TGI [53]: 23.4 µM
- TGI [54]: 17.8 µM
- TGI [55]: 27.7 µM
- TGI [59]: 17.4 µM
- TGI [60]: 26.4 µM
- TGI [61]: 19.5 µM
- TGI [63]: 21.1 µM
- TGI [64]: 18.1 µM
- TGI [65]: 21.4 µM

SMILES: O=C(Nc1c(-c2nc3ccccc3[nH]2)sc(=S)n1-c1ccccc1)c1ccccc1
- TGI [1]: > 100 µM
- TGI [2]: > 100 µM
- TGI [3]: > 100 µM
- TGI [4]: > 100 µM
- TGI [6]: > 100 µM
- TGI [7]: > 100 µM
- TGI [8]: > 100 µM
- TGI [9]: > 100 µM
- TGI [10]: > 100 µM
- TGI [11]: > 100 µM
- TGI [13]: > 100 µM
- TGI [14]: > 100 µM
- TGI [16]: > 100 µM
- TGI [17]: > 100 µM
- TGI [18]: > 100 µM
- TGI [19]: > 100 µM
- TGI [22]: > 100 µM
- TGI [23]: > 100 µM
- TGI [24]: > 100 µM
- TGI [25]: > 100 µM
- TGI [27]: > 100 µM
- TGI [28]: > 100 µM
- TGI [29]: > 100 µM
- TGI [30]: > 100 µM
- TGI [31]: > 100 µM
- TGI [35]: > 100 µM
- TGI [36]: 58.1 µM
- TGI [37]: > 100 µM
- TGI [39]: > 100 µM
- TGI [40]: > 100 µM
- TGI [42]: > 100 µM
- TGI [43]: > 100 µM
- TGI [45]: > 100 µM
- TGI [46]: > 100 µM
- TGI [66]: > 100 µM
- TGI [47]: > 100 µM
- TGI [48]: > 100 µM
- TGI [49]: > 100 µM
- TGI [50]: > 100 µM
- TGI [51]: > 100 µM
- TGI [52]: > 100 µM
- TGI [53]: > 100 µM
- TGI [54]: > 100 µM
- TGI [55]: > 100 µM
- TGI [56]: 58.4 µM
- TGI [57]: > 100 µM
- TGI [59]: > 100 µM
- TGI [60]: > 100 µM
- TGI [61]: > 100 µM
- TGI [62]: > 100 µM
- TGI [63]: > 100 µM
- TGI [64]: > 100 µM
